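Step 1: Grow cells in 96-well plates. Step 2: Expose to compound for 48 hours at 5 concentrations. Step 3: Interpolate endpoints linearly; if unreached, use highest concentration. At the TGI there is no net growth.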
Experiments:
Test in all cases: NCI-60 cell line screen, 48 h
[1] = test system: K-562 leukemia
[2] = test system: SK-MEL-2 melanoma
[3] = test system: ACHN renal
[4] = test system: SK-MEL-28 melanoma
[5] = test system: SNB-75 CNS
[6] = test system: CAKI-1 renal
[7] = test system: U251 CNS
[8] = test system: SK-MEL-5 melanoma
[9] = test system: MDA-MB-231 breast
[10] = test system: MDA-MB-435
[11] = test system: HS 578T breast
[12] = test system: COLO 205 colon
[13] = test system: SR leukemia
[14] = test system: HT29 colon

Structure (SMILES)	TGI [1]	TGI [2]	TGI [3]	TGI [4]	TGI [5]	TGI [6]	TGI [7]	TGI [8]	TGI [9]	TGI [10]	TGI [11]	TGI [12]	TGI [13]	TGI [14]
COc1cccc2c1C(=O)C1=C(C2=O)C(O)CC(C)(C)O1 (stereo not given)	50.3 µM	> 100 µM	> 100 µM	> 100 µM	> 100 µM	> 100 µM	> 100 µM	28.3 µM	87.7 µM	35.2 µM	> 100 µM	54 µM	46.3 µM	> 100 µM
NC(CCCCCCCCCCP(=O)(O)O)C(=O)O (stereo not given)	> 100 µM	> 100 µM	> 100 µM	> 100 µM	> 100 µM	> 100 µM	> 100 µM	> 100 µM	> 100 µM	> 100 µM	> 100 µM	> 100 µM	> 100 µM	> 100 µM
COc1ccc(N2CN3OC(=O)N(c4ccc(OC)cc4)[C@@]3(c3ccccc3)C2)cc1	> 100 µM	45.1 µM	> 100 µM	> 100 µM	95.2 µM	> 100 µM	> 100 µM	76.9 µM	99.6 µM	7.12 µM	> 100 µM	80.1 µM	66.2 µM	50.6 µM
CN(C)c1ccc(C2CC(c3ccc4ccccc4c3O)=NN2)cc1 (stereo not given)	90.2 µM	> 100 µM	> 100 µM	> 100 µM	> 100 µM	> 100 µM	> 100 µM	> 100 µM	> 100 µM	> 100 µM	> 100 µM	51.5 µM	51.7 µM	> 100 µM
Cc1ccc(Nc2nc(=O)c3c4ccccc4n(C(=O)OC(C)(C)C)c3s2)cc1	> 100 µM	59.2 µM	> 100 µM	> 100 µM	> 100 µM	66 µM	> 100 µM	27 µM	> 100 µM	38.1 µM	> 100 µM	> 100 µM	44.9 µM	> 100 µM
COc1ccccc1CCN1CCN(CCCc2ccccc2)CC1	> 100 µM	> 100 µM	> 100 µM	> 100 µM	> 100 µM	> 100 µM	> 100 µM	45.7 µM	> 100 µM	> 100 µM	> 100 µM	76 µM	> 100 µM	> 100 µM
Nc1ccccc1-c1noc(=O)[nH]1	> 100 µM	> 100 µM	> 100 µM	> 100 µM	> 100 µM	> 100 µM	> 100 µM	> 100 µM	> 100 µM	> 100 µM	> 100 µM	> 100 µM	> 100 µM	> 100 µM
CCN(CC)c1ccc2cc(C(N)=O)c(=N)oc2c1	> 100 µM	54.1 µM	> 100 µM	> 100 µM	> 100 µM	> 100 µM	> 100 µM	> 100 µM	> 100 µM	> 100 µM	45.8 µM	> 100 µM	> 100 µM	> 100 µM
Nc1ncc(Br)c(NCC2(CO)CCC2)n1	> 100 µM	> 100 µM	> 100 µM	> 100 µM	> 100 µM	> 100 µM	> 100 µM	> 100 µM	> 100 µM	> 100 µM	> 100 µM	> 100 µM	> 100 µM	> 100 µM
C[N+](C)(CCCn1ccnc1[N+](=O)[O-])CCCn1ccnc1[N+](=O)[O-]	> 100 µM	> 100 µM	> 100 µM	> 100 µM	> 100 µM	> 100 µM	> 100 µM	> 100 µM	> 100 µM	> 100 µM	> 100 µM	> 100 µM	> 100 µM	> 100 µM
CC(C)(C)c1cc(C(=O)/C=C/c2c(Cl)cccc2Cl)cc(C(C)(C)C)c1O	> 100 µM	26.4 µM	28.2 µM	41.3 µM	34.3 µM	54.9 µM	24.5 µM	23.9 µM	41.6 µM	54.4 µM	> 84 µM	32 µM	> 37 µM	26.3 µM
C1=CC2C=CC(C=C1)P2c1ccccc1 (stereo not given)	> 100 µM	> 100 µM	> 100 µM	> 100 µM	> 100 µM	> 100 µM	> 100 µM	> 100 µM	> 100 µM	> 100 µM	> 100 µM	> 100 µM	> 100 µM	> 100 µM
CS(=O)(=O)OCCCCOS(=O)(=O)CF	> 100 µM	> 100 µM	> 100 µM	> 100 µM	> 100 µM	> 100 µM	> 100 µM	> 100 µM	> 100 µM	> 100 µM	> 100 µM	> 100 µM	> 100 µM	> 100 µM
CO[C@]1(c2ccc([N+](=O)[O-])cc2)Oc2ccccc2C(=O)[C@@]1(Nc1ccc(C=O)cc1)OC	> 10 µM	> 10 µM	> 10 µM	> 10 µM	> 10 µM	> 10 µM	> 10 µM	> 10 µM	> 10 µM	> 10 µM	> 10 µM	> 10 µM	> 10 µM	> 10 µM
C=Cc1nc2c(Cl)ncnc2n1Cc1ccccc1	> 40.1 µM	26.3 µM	3.59 µM	11.3 µM	28.4 µM	3.99 µM	22.6 µM	8.69 µM	19.1 µM	10.1 µM	50.4 µM	3.08 µM	> 33.4 µM	7.28 µM
NC(N)=Nc1ccc(-c2ccc(N=C(N)N)cc2)cc1	> 100 µM	99.7 µM	> 100 µM	> 100 µM	86.1 µM	> 100 µM	> 100 µM	54.1 µM	> 100 µM	> 100 µM	67.3 µM	47 µM	> 100 µM	> 100 µM
O=C1OCN(c2ccccc2)C12CCN(Cc1ccccc1)CC2	24.1 µM	48.4 µM	> 100 µM	34 µM	59.9 µM	> 100 µM	31.5 µM	33.6 µM	66.6 µM	31.2 µM	55.4 µM	39.6 µM	> 100 µM	31.9 µM
NC(=O)C(=CNC(N)=S)C(N)=O	> 100 µM	> 100 µM	> 100 µM	> 100 µM	> 100 µM	> 100 µM	> 100 µM	> 100 µM	> 100 µM	> 100 µM	> 100 µM	> 100 µM	> 100 µM	> 100 µM
CN1CCc2cc3c(c4c2C1C(O)c1ccccc1-4)OCO3 (stereo not given)	63.5 µM	21.7 µM	> 100 µM	85.7 µM	28.5 µM	18.2 µM	25.6 µM	26.4 µM	22.5 µM	28 µM	19.5 µM	> 100 µM	28.8 µM	18.3 µM
O=C(Nc1ccccc1)OCCN=C1c2ccccc2C(Br)C(Br)c2ccccc21 (stereo not given)	7.03 µM	> 31.6 µM	20.6 µM	16.1 µM	26.5 µM	16.2 µM	16.5 µM	16.9 µM	20.6 µM	17.1 µM	22 µM	13 µM	7.08 µM	14.6 µM
